# pEC50: −log10 of the molar value. Where a name gives a salt, the structure may show the parent alone.
# Test system: symmetric dimethylation of arginine (SDMA) of PRMT5 substrates in MCF-7 cells
# Experiment: PRMT5 Cell Target Engagement (TE) Assay
# Assay type: cell-based
# Conditions: Homo sapiens, MCF7, 72 h; MCF-7 cells treated for 3 days; nuclear SDMA by high content imaging; top concentration 10000 nM
# Description: PRMT5 Cell Target Engagement (TE) Assay
# The PRMT5 TE assay is a biomarker assay for identifying compounds that inhibit symmetric dimethylation of arginine (SDMA) of PRMT5 substrates. The following substrates have been reported for PRMT5: Histone H2A and H4 R3, Histone H3 R2, Histone 1-13 R8, spliceosome Sm proteins, ribosomal protein RPS10, p53, FEN1, nucleoplasmin, nucleolin, EGFR and EBNA. The assay will focus on detecting symnetrically dimethylated nuclear proteins using high content imaging technology. Detection of the expression of symmetrically dimethylated nuclear proteins is through a mixture of primary rabbit monoclonal antibodies to SDMA (CST 13222) which in turn recognized by an Alexafluor 488 dye-conjugated anti-rabbit IgG secondary antibody. The IN Cell Analyzer 2200 or Opera-Phenix measures nuclear Alexafluor 488 fluorescent dye intensity that is directly related to the level of expression of symmetrically dimethylated nuclear proteins at the single cell level. Nuclear AF488 dye intensities are compared to the mean value for DMSO treated cells (MIN) to report percent of inhibition for each compound-treated well.
# In this assay, the cell potency (EC50) of each compound was determined from a ten point (1:3 serial dilution; top compound concentration of 10000 nM) titration curve using the following outlined procedure. Each well of a BD falcon collagen coated black/clear bottom 384-well plate was seeded with 4000 MCF-7 cells in 30 pal media and allowed to attach for 5 hours. Media is ATCC-formulated Eagle's Minimum Essential Medium, Catalog No. 30-2003. The following components were added to the base medium: 0.01 mg/mL human recombinant insulin; fetal bovine serum to a final concentration of 10%. Additional 30 pal of media containing 2× compounds were added to each well. Cells were treated for 3 days in 37° C. CO2 incubator. On day 3, cells were fixed with Cytofix, permeabilized with 0.4% Triton-X-100/Cytofix, and washed with D-PBS without Ca/Mg. Cells were blocked with Licor Odessey blocking reagent for 1 hour at room temperature, followed by incubation with anti-SDMA (1:1000) antibody at 4° C. overnight. 1° antibody was removed, followed by three washings with DPBS without Ca/Mg and 0.05% Tween20. Hoechst (5 μg/mL), Cell Mask deep stain (1:2000) and Alexa488-conjugated goat anti-rabbit IgG (2 μg/mL) was added for 1 hour at room temperature. A final washing step (three washes) was performed before sealing plate for imaging on in Cell Analyzer 2200 or Opera-Phenix. Images from analyzer were uploaded to Columbus for image analysis. IC50 values were determined by 4 parameters robust fit of percent fluorescence units vs. (Log 10) compound concentrations.
row,SMILES,pEC50
1,"Nc1nc2cc(C[C@@H]3CC[C@@]4(O)[C@@H]3O[C@@H](n3cc(F)c5c(N)ncnc53)[C@@H]4O)cc(F)c2cc1F [Example 24, (2R,3R,3aS,6S,6aR)-6-((2-amino-3,5-difluoroquinolin-7-yl)methyl)-2-(4-amino-5-fluoro-7H-pyrrolo[2,3-d]pyrimidin-7-yl)hexahydro-3aH-cyclopenta[b]furan-3,3a-diol]",8.89
2,Nc1nc2cc(C[C@@H]3CC[C@@]4(O)[C@@H]3O[C@@H](n3ccc5c(N)ncnc53)[C@@H]4O)c(F)cc2cc1F [Example 27],8.55
3,"Cc1nc(N)c2ccn([C@@H]3C[C@@H]4[C@H](Cc5ccc6cc(Cl)c(N)nc6c5)CC[C@]4(O)[C@H]3O)c2n1 [Example 31, (1S,2R,3aR,4S,6aR)-2-(4-amino-2-methyl-7H-pyrrolo[2,3-d]pyrimidin-7-yl)-4-((2-amino-3-chloroquinolin-7-yl)methyl) hexahydropentalene-1,6a(1H)-diol 2,2,2-trifluoroacetate]",9.10
4,"Nc1nc2cc(C[C@@H]3CC[C@@]4(O)[C@@H]3C[C@@H](n3cc(F)c5c(N)ncnc53)[C@@H]4O)ccc2cc1F [Example 33, (1S,2R,3aR,4S,6aR)-4-((2-amino-3-fluoroquinolin-7-yl)methyl)-2-(4-amino-5-fluoro-7H-pyrrolo[2,3-d]pyrimidin-7-yl)hexahydropentalene-1,6a(1H)-diol]",9.40
5,"Nc1nc2cc(C[C@@H]3CC[C@@]4(O)[C@@H]3C[C@@H](n3cc(F)c5c(N)ncnc53)[C@@H]4O)ccc2cc1Cl [Example 34, (1S,2R,3aR,4S,6aR)-4-((2-amino-3-chloroquinolin-7-yl)methyl)-2-(4-amino-5-fluoro-7H-pyrrolo[2,3-d]pyrimidin-7-yl)hexahydropentalene-1,6a(1H)-diol]",9.52
6,"Cc1cn([C@@H]2C[C@@H]3[C@H](Cc4ccc5cc(F)c(N)nc5c4)CC[C@]3(O)[C@H]2O)c2ncnc(N)c12 [Example 38, (1S,2R,3aR,4S,6aR)-4-((2-amino-3-fluoroquinolin-7-yl)methyl)-2-(4-amino-5-methyl-7H-pyrrolo[2,3-d]pyrimidin-7-yl)hexahydropentaiene-1,6a(1H)-diol]",9.22
7,"Cc1cn([C@@H]2C[C@@H]3[C@H](Cc4ccc5cc(Cl)c(N)nc5c4)CC[C@]3(O)[C@H]2O)c2ncnc(N)c12 [Example 39, (1S,2R,3aR,4S,6aR)-4-((2-amino-3-chloroquinolin-7-yl)methyl)-2-(4-amino-5-methyl-7H-pyrrolo[2,3-d]pyrimidin-7-yl)hexahydropentalene-1,6a(1H)-diol]",9.52
8,"Nc1nc2cc(C[C@@H]3CC[C@@]4(O)[C@@H]3C[C@@H](n3cc(F)c5c(N)ncnc53)[C@@H]4O)ccc2cc1Br [Example 42, (1S,2R,3aR,4S,6aR)-4-((2-amino-3-bromoquinolin-7-yl)methyl)-2-(4-amino-5-fluoro-7H-pyrrolo[2,3-d]pyrimidin-7-yl)hexahydropentalene-1,6a(1H)-diol]",9.52
9,"Cc1nc(N)c2c(F)cn([C@@H]3O[C@@H]4[C@H](Cc5ccc6cc(F)c(N)nc6c5)CC[C@]4(O)[C@H]3O)c2n1 [Example 44, (2R,3R,3aS,6S,6aR)-6-((2-amino-3-fluoroquinolin-7-yl)methyl)-2-(4-amino-5-fluoro-2-methyl-7H-pyrrolo[2,3-d]pyrimidin-7-yl)hexahydro-3aH-cyclopenta[b]furan-3,3a-diol 2,2,2-trifluoroacetate]",8.06

# Further lines, results first:
row,pEC50,SMILES
1,6.59,"Cc1ncnc2c1ccn2[C@@H]1O[C@@H]2[C@H](Cc3cnc4cc(F)c(N)nc4c3)CC[C@]2(O)[C@H]1O [Example 25, (2R,3R,3aS,6S,6aR)-6-((6-amino-7-fluoro-1,5-naphthyridin-3-yl)methyl)-2-(4-methyl-7H-pyrrolo[2,3-d]pyrimidin-7-yl)hexahydro-3aH-cyclopenta[b]furan-3,3a-diol, 3HCl]"
2,8.40,"Nc1nc2c(F)c(C[C@@H]3CC[C@@]4(O)[C@@H]3O[C@@H](n3ccc5c(N)ncnc53)[C@@H]4O)ccc2cc1Cl [Example 26, (2R,3R,3aS,6S,6aR)-6-((2-amino-3-chloro-8-fluoroquinolin-7-yl)methyl)-2-(4-amino-7H-pyrrolo[2,3-d]pyrimidin-7-yl)hexahydro-3aH-cyclopenta[b]furan-3,3a-diol]"
3,7.89,"Nc1nc2nc(C[C@@H]3CC[C@@]4(O)[C@@H]3O[C@@H](n3ccc5c(N)ncnc53)[C@@H]4O)ccc2cc1Cl [Example 28, (2R,3R,3aS,6S,6aR)-6-(7-amino-6-chloro-1,8-naphthyridin-2-yl)methyl)-2-(4-amino-7H-pyrrolo[2,3-d]pyrimidin-7-yl)hexahydro-3aH-cyclopenta[b]furan-3,3a-diol trihydrochloride]"
4,8.77,"Nc1nc2cc(C[C@@H]3CC[C@@]4(O)[C@@H]3O[C@@H](n3ccc5c(N)ncnc53)[C@@H]4O)cc(F)c2cc1F [Example 29, (2R,3R,3aS,6S,6aR)-6-[(2-amino-3,5-difluoroquinolin-7-yl)methyl]-2-(4-amino-7H-pyrrolo[2,3-d]pyrimidin-7-yl)hexahydro-3aH-cyclopenta[b]furan-3,3a-diol]"
5,9.10,"Nc1nc2cc(C[C@@H]3CC[C@@]4(O)[C@@H]3C[C@@H](n3cc(F)c5c(N)ncnc53)[C@@H]4O)cc(F)c2cc1F [Example 30, (1S,2R,3aR,4S,6aR)-4-((2-amino-3,5-difluoroquinolin-7-yl)methyl)-2-(4-amino-5-fluoro-7H-pyrrolo[2,3-d]pyrimidin-7-yl)hexahydropentalene-1,6a(1H)-diol]"
6,9.10,"Cc1nc(N)c2ccn([C@@H]3C[C@@H]4[C@H](Cc5ccc6cc(F)c(N)nc6c5)CC[C@]4(O)[C@H]3O)c2n1 [Example 32, (1S,2R,3aR,4S,6aR)-2-(4-amino-2-methyl-7H-pyrrolo[2,3-d]pyrimidin-7-yl)-4-((2-amino-3-fluoroquinolin-7-yl)methyl) hexahydropentalene-1,6a(1H)-diol 2,2,2-trifluoroacetate]"
7,9.10,"Cc1cn([C@@H]2C[C@@H]3[C@H](Cc4cc(F)c5cc(F)c(N)nc5c4)CC[C@]3(O)[C@H]2O)c2ncnc(N)c12 [Example 35, (1S,2R,3aR,4S,6aR)-4-[(2-amino-3,5-difluoroquinolin-7-yl)methyl]-2-(4-amino-5-methyl-7H-pyrrolo[2,3-d]pyrimidin-7-yl)hexahydropentalene-1,6a(1H)-diol]"
8,8.85,"Cc1cn([C@@H]2C[C@@H]3[C@H](Cc4cc(F)c5cc(Cl)c(N)nc5c4)CC[C@]3(O)[C@H]2O)c2ncnc(N)c12 [Example 36, (1S,2R,3aR,4S,6aR)-4-[(2-amino-3-chloro-5-fluoroquinolin-7-yl)methyl]-2-(4-amino-5-methyl-7H-pyrrolo[2,3-d]pyrimidin-7-yl)hexahydropentalene-1,6a(1H)-diol]"
9,9.22,"Cc1nc(N)c2ccn([C@@H]3C[C@@H]4[C@H](Cc5ccc6cc(Br)c(N)nc6c5)CC[C@]4(O)[C@H]3O)c2n1 [Example 37, (1S,2R,3aR,4S,6aR)-2-(4-amino-2-methyl-7H-pyrrolo[2,3-d]pyrimidin-7-yI)-4-((2-amino-3-bromoquinolin-7-yl)methyl)hexahydropentalene-1,6a(1H)-diol]"
10,9.15,"Cc1cn([C@@H]2C[C@@H]3[C@H](Cc4ccc5cc(Br)c(N)nc5c4)CC[C@]3(O)[C@H]2O)c2ncnc(N)c12 [Example 40, (1S,2R,3aR,4S,6aR)-4-((2-amino-3-bromoquinolin-7-yl)methyl)-2-(4-amino-5-methyl-7H-pyrrolo[2,3-d]pyrimidin-7-yl)hexahydropentalene-1,6a(1H)-diol]"
11,8.54,"Nc1nc2cc(C[C@@H]3CC[C@@]4(O)[C@@H]3C[C@@H](n3ccc5c(N)ncnc53)[C@@H]4O)ccc2cc1Br [Example 41, (1S,2R,3aR,4S,6aR)-4-((2-amino-3-bromoquinolin-7-yl)methyl)-2-(4-amino-7H-pyrrolo[2,3-d]pyrimidin-7-yl)hexahydropentalene-1,6a (1H)-diol 2,2,2-trifluoroacetate]"
12,9.00,"Nc1nc2cc(C[C@@H]3CC[C@@]4(O)[C@@H]3O[C@@H](n3cc(C(F)F)c5c(N)ncnc53)[C@@H]4O)ccc2cc1Br [Example 43, (2R,3R,3aS,6S,6aR)-6-[(2-amino-3-bromoquinolin-7-yl)methyl]-2-[4-amino-5-(difluoromethyl)-7H-pyrrolo[2,3-d]pyrimidin-7-yl]hexahydro-3aH-cyclopenta[b]furan-3,3a-diol]"

# — patent publication US12173026B2, “PRMT5 inhibitors” (Merck Sharp & Dohme LLC, priority 2018, dated 2024)
